Experimental data reported in patent US9326986B2, “Quinazolinone, quinolone and related analogs as sirtuin modulators” (GLAXOSMITHKLINE LLC, priority 2008, dated 2016).

Target: T1, SIRT1 (Homo sapiens, UniProt Q96EB6)
T1 sequence (Q96EB6 1-747): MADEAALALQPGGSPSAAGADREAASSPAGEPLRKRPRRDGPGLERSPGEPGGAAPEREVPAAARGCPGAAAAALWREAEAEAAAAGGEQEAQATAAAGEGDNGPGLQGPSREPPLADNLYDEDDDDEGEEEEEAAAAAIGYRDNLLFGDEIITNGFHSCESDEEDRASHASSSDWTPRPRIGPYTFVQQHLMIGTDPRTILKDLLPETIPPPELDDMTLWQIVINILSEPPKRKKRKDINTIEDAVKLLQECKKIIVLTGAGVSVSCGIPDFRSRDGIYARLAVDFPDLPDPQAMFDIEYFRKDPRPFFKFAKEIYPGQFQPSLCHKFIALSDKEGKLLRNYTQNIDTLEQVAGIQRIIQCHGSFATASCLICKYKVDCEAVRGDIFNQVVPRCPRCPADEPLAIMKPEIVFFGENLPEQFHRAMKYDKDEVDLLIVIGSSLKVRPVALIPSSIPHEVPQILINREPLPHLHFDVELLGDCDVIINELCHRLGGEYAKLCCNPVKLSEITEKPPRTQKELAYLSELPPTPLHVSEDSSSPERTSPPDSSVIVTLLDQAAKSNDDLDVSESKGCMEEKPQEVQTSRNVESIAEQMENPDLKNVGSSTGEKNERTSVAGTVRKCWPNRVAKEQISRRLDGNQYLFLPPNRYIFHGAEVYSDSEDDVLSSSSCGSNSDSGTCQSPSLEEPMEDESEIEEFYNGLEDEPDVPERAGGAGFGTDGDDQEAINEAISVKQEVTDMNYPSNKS
Experiment: Mass spectrometry based assay to identify modulators of SIRT1 activity (deacetylation of p53-based acetylated peptide)
Type: biochemical
Conditions: 10 nM SIRT1, 0.5 μM peptide substrate, 120 μM βNAD+, 25 minutes at 25° C.; for EC1.5 μM: SIRT1 activation

Row | SMILES | % Fold Act. (percent maximum fold activation) | EC1.5 μM
1 | Cc1nc(C)c(-c2nc3c(NC(=O)c4cnccn4)cccc3c(=O)n2C)s1 [Compound 287, N-(2-(2,4-dimethylthiazol-5-yl)-3-methyl-4-oxo-3,4-dihydroquinazolin-8-yl)pyrazine-2-carboxamide] | A (Fold activation>200%) | B (EC1.5 1-25 μM)
2 | Cc1cc(C(=O)Nc2cccc3c(=O)cc(-c4cccc(C(F)(F)F)c4)[nH]c23)n(C)n1 [Compound 410] | A (Fold activation>200%) | A (EC1.5<1.0 μM)
3 | Cn1c(-c2cccc(C(F)(F)F)c2)nc2c(C(=O)Nc3cnccn3)cccc2c1=O [Compound 219] | A (Fold activation>200%) | A (EC1.5<1.0 μM)
4 | Cn1c(-c2ccccc2)nc2c(C(=O)Nc3ccccn3)cccc2c1=O [Compound 210] | B (Fold Activation<200%) | B (EC1.5 1-25 μM)
5 | Cn1c(-c2cccc(C(F)(F)F)c2)nc2c(C(=O)Nc3ncc(CN4CCOCC4)s3)cccc2c1=O [Compound 308] | A (Fold activation>200%) | B (EC1.5 1-25 μM)
6 | O=C(Nc1cccc2c(=O)cc(-c3cccc(C(F)(F)F)c3)[nH]c12)c1ccccn1 [Compound 408] | A (Fold activation>200%) | A (EC1.5<1.0 μM)
7 | Cn1c(-c2cccc(C(F)(F)F)c2)nc2c(C(=O)Nc3ccccn3)cccc2c1=O [Compound 206] | A (Fold activation>200%) | A (EC1.5<1.0 μM)
8 | Cn1cc(C(=O)Nc2cccc3c(=O)n(C)c(-c4cccc(C(F)(F)F)c4)nc23)cn1 [Compound 268] | B (Fold Activation<200%) | C (EC1.5>25 μM)
9 | Cn1c(-c2ccccc2Cl)nc2c(C(=O)Nc3ccccn3)cccc2c1=O [Compound 242] | B (Fold Activation<200%) | B (EC1.5 1-25 μM)
10 | Cn1c(-c2ccncn2)nc2c(C(=O)Nc3ccccn3)cccc2c1=O [Compound 257] | B (Fold Activation<200%) | C (EC1.5>25 μM)
11 | Cn1c(-c2cccc(C(F)(F)F)c2)nc2c(NS(=O)(=O)c3ccccn3)cccc2c1=O [Compound 362] | B (Fold Activation<200%) | C (EC1.5>25 μM)
12 | Cn1c(-c2ccncc2)nc2c(C(=O)Nc3ccccn3)cccc2c1=O [Compound 223] | B (Fold Activation<200%) | C (EC1.5>25 μM)
13 | CCCn1c(-c2cccc(C(F)(F)F)c2)nc2c(NC(=O)c3cnccn3)cccc2c1=O [Compound 233] | A (Fold activation>200%) | A (EC1.5<1.0 μM)
14 | O=C(Nc1nccs1)c1cccc2c(=O)cc(-c3cccc(C(F)(F)F)c3)[nH]c12 [Compound 404] | A (Fold activation>200%) | A (EC1.5<1.0 μM)
15 | COc1cccc(C(=O)Nc2cccc3c(=O)cc(-c4cccc(C(F)(F)F)c4)[nH]c23)n1 [Compound 422] | A (Fold activation>200%) | A (EC1.5<1.0 μM)
16 | O=C(Nc1nccs1)c1cccc2c(=O)cc(-c3ccccc3Cl)[nH]c12 [Compound 426] | A (Fold activation>200%) | A (EC1.5<1.0 μM)
17 | Cn1c(-c2ccccc2OC(F)F)nc2c(C(=O)Nc3ccccn3)cccc2c1=O [Compound 327] | A (Fold activation>200%) | B (EC1.5 1-25 μM)
18 | O=C(Nc1cnccn1)c1cccc2c(=O)cc(-c3cccc(Cl)c3)[nH]c12 [Compound 434] | B (Fold Activation<200%) | A (EC1.5<1.0 μM)
19 | O=C(Nc1cccc2c(=O)cc(-c3cccc(C(F)(F)F)c3)[nH]c12)c1cncs1 [Compound 416] | A (Fold activation>200%) | A (EC1.5<1.0 μM)

Row | SMILES | % Fold Act. (percent maximum fold activation) | EC1.5 μM
20 | Cn1c(-c2ncccn2)nc2c(C(=O)Nc3ccccn3)cccc2c1=O [Compound 259] | B (Fold Activation<200%) | C (EC1.5>25 μM)
21 | Cn1c(-c2cccnc2)nc2c(C(=O)Nc3ccccn3)cccc2c1=O [Compound 256] | B (Fold Activation<200%) | C (EC1.5>25 μM)
22 | O=C(Nc1ccccn1)c1cccc2c(=O)[nH]c(-c3cccc(C(F)F)c3)nc12 [Compound 319] | B (Fold Activation<200%) | C (EC1.5>25 μM)
23 | CCCn1c(-c2cccc(C(F)(F)F)c2)nc2c(C(=O)Nc3ccccn3)cccc2c1=O [Compound 270] | B (Fold Activation<200%) | C (EC1.5>25 μM)
24 | Cc1nc(NC(=O)c2cccc3c(=O)n(C)c(-c4cccc(C(F)(F)F)c4)nc23)sc1C [Compound 298] | A (Fold activation>200%) | A (EC1.5<1.0 μM)
25 | O=C(Nc1cccnc1)c1cccc2c(=O)cc(-c3ccccc3Cl)[nH]c12 [Compound 441] | A (Fold activation>200%) | B (EC1.5 1-25 μM)
26 | O=C(Nc1cccc2c(=O)n(CCN3CCCC3)c(-c3cccc(C(F)(F)F)c3)nc12)c1cnccn1 [Compound 235] | A (Fold activation>200%) | B (EC1.5 1-25 μM)
27 | CN1C(=O)CCC1C(=O)Nc1cccc2c(=O)n(C)c(-c3cccc(C(F)(F)F)c3)nc12 (centres unmarked) [Compound 340] | B (Fold Activation<200%) | C (EC1.5>25 μM)
28 | Cn1c(-c2cccc(C(F)(F)F)c2)nc2c(NC(=O)c3cccc(N4CCOCC4)c3)cccc2c1=O [Compound 330] | A (Fold activation>200%) | A (EC1.5<1.0 μM)
29 | O=C(Nc1nccs1)c1cccc2c(=O)cc(-c3cccc(OC(F)(F)F)c3)[nH]c12 [Compound 429] | A (Fold activation>200%) | A (EC1.5<1.0 μM)
30 | O=C(Nc1nccs1)c1cccc2c(=O)cc(-c3cccc(OC(F)F)c3)[nH]c12 [Compound 428] | A (Fold activation>200%) | A (EC1.5<1.0 μM)
31 | Cc1cc(NC(=O)c2cccc3c(=O)cc(-c4cccc(C(F)(F)F)c4)[nH]c23)on1 [Compound 406] | A (Fold activation>200%) | A (EC1.5<1.0 μM)
32 | CN1CCCC1C(=O)Nc1cccc2c(=O)n(C)c(-c3cccc(C(F)(F)F)c3)nc12 (centres unmarked) [Compound 331] | B (Fold Activation<200%) | B (EC1.5 1-25 μM)
33 | Cn1c(-c2cccc(C(F)(F)F)c2)nc2c(NC(=O)c3cccnc3OCC(O)CO)cccc2c1=O (centres unmarked) [Compound 334] | A (Fold activation>200%) | B (EC1.5 1-25 μM)
34 | O=C(Nc1cccnc1)c1cccc2c(=O)cc(-c3ccccc3OC(F)(F)F)[nH]c12 [Compound 439] | A (Fold activation>200%) | A (EC1.5<1.0 μM)
35 | O=C(Nc1nccs1)c1cccc2c(=O)cc(-c3ccccc3OC(F)(F)F)[nH]c12 [Compound 430] | A (Fold activation>200%) | A (EC1.5<1.0 μM)
36 | Cn1c(-c2cscn2)nc2c(C(=O)Nc3ccccn3)cccc2c1=O [Compound 225] | B (Fold Activation<200%) | C (EC1.5>25 μM)
37 | COc1ccc(NC(=O)c2cccc3c(=O)n(C)c(-c4cccc(C(F)(F)F)c4)nc23)cc1OC [Compound 220, N-(3,4-dimethoxyphenyl)-3-methyl-4-oxo-2-(3-(trifluoromethyl)phenyl)-3,4-dihydroquinazoline-8-carboxamide] | A (Fold activation>200%) | A (EC1.5<1.0 μM)
